This note sets out measurements from patent US20250057963A1, “DISCOVERY OF PIPERLONGUMINE AS A NOVEL E3 LIGASE LIGAND” (University of Florida Research Foundation, Incorporated, priority 2021, published 2025).

In one test the test system is c-Myc and MCl-1. The test can be described thus: c-Myc and MCL-1 expression in MOLT4 cells (qPCR and immunoblot). It is filed as cell-based, Human. As to the method:
Cells were collected and lysed in RIPA lysis buffer (Cat. #BP-115DG, Boston Bio Products, Ashland, MA, USA) supplemented with protease and phosphatase inhibitor cocktails (Cat. #PPC1010, Sigma-Aldrich, St. Louis, MO, USA). Protein samples were made and immunoblotting was performed as described previously (Khan et al., 2019; Lv et al., 2021). Antibodies purchased from Cell Signaling Technologies (CST) and the dilutions are as follows: Biotin (Cat. No. 5571S, 1:1000), PARP (Cat. No. 9542S, 1:1000), c-Myc (Cat. No. 5605S, 1:1000), MCL1 (Cat. No. 5453S, 1:1000), and ALK (Cat. No. 3791S, 1:1000). KEAP1 antibody was purchased from Proteintech (Cat. No. 10503-2-AP, 1:1000). CDK9 antibody was purchased from Santa Cruz (Cat. No. sc-13130, 1:500). V5-tag antibody was purchased from Bethyl (Cat. No. A190-120P, 1:1000). j-actin antibody was purchased from MP Biomedicals (Cat. No. 8691001, 1:20 000).
Total RNA was extracted as mentioned above. Reverse transcription and quantitative PCR (qPCR) was performed as described in our previous study (Lv et al., 2021). Primers used for measuring gene transcriptional level: GAPDH primers (forward 5′-[…]-3′ and reverse 5′-[…]-3′) were described previously (Zhang et al., 2018b). MCL1 primers are forward 5′-[…]-3′ and reverse 5′-[…]-3′; MYC primers are forward 5′-[…]-3′ and reverse 5′-[…]-3′.
A general note: In qPCR the cycle at which signal appears reflects the starting amount.

For test [1], the target named is T1, E3 ligases interacting with V5-TurboID-CDK9 (Homo sapiens, UniProt Q14145).
T1 construct: The biotinylated proteins identified by MS in 293T cells; expressed in transfected cells; host or cells: 293T
Briefly: TurboID-bait assay (V5-TurboID-CDK9 in 293T cells) with LC-MS/MS or immunoblot. It is filed as cell-based. Particulars: with vs without 955, biotin present. The source says: (§1) Construction of the pcDNA3-V5-TurboID-CDK9 plasmid. To build the TurboID-bait assay, we first constructed a V5-TurboID-tagged CDK9 plasmid (pDL2518) through Gibson assembly method. The template plasmids HA-CDK9 (a gift from Andrew Rice, plasmid #28102) and V5-TurboID-NES_pCDNA3 (a gift from Alice Ting, plasmid #107169) were purchased from Addgene. The primer pair (5′-cagtctgcggtctgccgaaaagctgcag[…]-3′ and 5′-cagggtcaggcgctccaggggaggcag[…]-3′) and the template HA-CDK9 were used to clone the CDK9 fragment. The two primer pairs: pair-1 (5′-[…]ctgcctcccctggagcgcctgaccctg-3′ and 5′-[…]-3′); pair-2 (5′-[…]-3′ and 5′-[…]ctgcagcttttcggcagaccgcagactg-3′) and the template V5-TurboID-NES_pCDNA3 were used to clone the V5-TurbolD fragment. The PCR fragments were assembled using NEBuilder® HiFi DNAAssembly Master Mix (Cat. No. E2621, NEB, Ipswich, MA, USA). DNA sequences in all these plasmids were authenticated by automatic sequencing.
(§2) TurboID-bait assay. 293T (6×10^5 for WB detection and 1.2×10^6 for MS) cells were transfected with plasmid V5-TurboID-CDK9 using Lipofectamine 2000 as previously described (Lv et al., 2021). […] Then the cells were harvested and lysed in 1×PBS buffer (Cat. #D1408, Sigma-Aldrich). After centrifugation at 20,000×g for 60 min at 4° C., the supernatant soluble fraction was used for further analysis. […]

In test [2] the test system is E3 ligases interacting with V5-TurboID-CDK9. Described as above. The format is cell-based, Human. Particulars: MS of biotinylated proteins with vs without 955.
Source text: as §1, §2

The structures appear in SMILES notation. “Also recorded” adds a separate entry of the source.

T1 sequence (Q14145 whole entry): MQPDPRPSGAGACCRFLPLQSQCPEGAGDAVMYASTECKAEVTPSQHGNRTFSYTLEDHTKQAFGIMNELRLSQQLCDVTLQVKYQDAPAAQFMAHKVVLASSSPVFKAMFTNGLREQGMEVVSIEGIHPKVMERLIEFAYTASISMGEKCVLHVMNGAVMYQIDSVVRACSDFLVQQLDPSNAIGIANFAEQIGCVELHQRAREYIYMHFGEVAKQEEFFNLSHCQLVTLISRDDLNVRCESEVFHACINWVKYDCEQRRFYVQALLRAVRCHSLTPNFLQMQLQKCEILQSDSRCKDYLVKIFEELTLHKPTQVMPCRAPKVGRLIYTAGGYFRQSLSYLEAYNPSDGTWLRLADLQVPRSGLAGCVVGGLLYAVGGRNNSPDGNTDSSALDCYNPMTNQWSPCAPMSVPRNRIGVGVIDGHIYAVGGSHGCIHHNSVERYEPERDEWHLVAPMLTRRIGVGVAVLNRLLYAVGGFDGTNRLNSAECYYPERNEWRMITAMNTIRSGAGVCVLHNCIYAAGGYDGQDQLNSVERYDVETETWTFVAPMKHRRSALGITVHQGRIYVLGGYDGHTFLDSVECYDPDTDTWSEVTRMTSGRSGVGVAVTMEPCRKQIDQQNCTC
T1 sequence (P50750 whole entry partner): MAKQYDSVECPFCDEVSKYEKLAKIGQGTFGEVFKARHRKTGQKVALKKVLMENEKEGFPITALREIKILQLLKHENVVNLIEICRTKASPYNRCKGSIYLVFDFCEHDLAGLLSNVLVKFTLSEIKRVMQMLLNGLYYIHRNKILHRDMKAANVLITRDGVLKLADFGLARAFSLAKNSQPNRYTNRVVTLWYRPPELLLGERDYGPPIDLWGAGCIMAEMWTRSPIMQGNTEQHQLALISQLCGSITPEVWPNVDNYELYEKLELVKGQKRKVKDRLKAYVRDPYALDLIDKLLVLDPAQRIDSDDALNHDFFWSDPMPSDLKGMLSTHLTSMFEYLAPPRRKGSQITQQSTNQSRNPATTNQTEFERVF

As to `COc1cc(/C=C/C(=O)N2CCC=CC2=O)cc(OC)c1OCCN1CCN(C(=O)CN2CCC(C(=O)Nc3ncc(SCc4ncc(C(C)(C)C)o4)s3)CC2)CC1` [compound 955, (E)-N-(5-(((5-(tert-butyl)oxazol-2-yl)methyl)thio)thiazol-2-yl)-1-(2-(4-(2-(2,6-dimethoxy-4-(3-oxo-3-(6-oxo-3,6-dihydropyridin-1(2H)-yl)prop-1-en-1-yl)phenoxy)ethyl)piperazin-1-yl)-2-oxoethyl)piperidine-4-carboxamide], in the test with c-Myc and MCl-1, the “effectiveness relative to SNS-032 in downregulating c-Myc and MCl-1 (mRNA and protein)” value is recorded as roughly 10 times; the “potency relative to SNS-032 in downregulation of c-Myc and MCl-1 (mRNA and protein)” value was “about 10 fold”. The “KEAP1 pulled down (immunoblot validation)” value in test [1] is “more KEAP1 could be pulled down; also recorded: significantly more KEAP1 can be pulled down”. In addition, the “number of E3 ligases recruited to CDK9” value in test [2] came to 6.
